Reference: patent US20090233372A1, “COMPOSITIONS, KITS AND METHODS FOR DETERMINING ETIOLOGY OF TRALI AND DETECTING PATIENTS AT RISK FOR THIS TRANSFUSION REACTION” (Bonfils Blood Center, priority 2008, published 2009)

What was measured:
Type in all cases: cell-based
[1] = tested on: peripheral blood neutrophils; assay: Priming assay using fluorescent probe (DHR) for hydrogen peroxide, flow cytometry
Description: Hydrogen peroxide (H2O2) is another reactive oxygen species produced by neutrophils when the NADPH oxidase and associated respiratory burst are activated. H2O2 can be detected intracellularly by incubating cells with dihydrorhodamine (DHR). This non-fluorescent compound will be oxidized to rhodamine, a potent fluorophore, when H2O2 is generated by activated neutrophils. This assay can be used to detect enhancement of the fMLP stimulated respiratory burst. […] Isolated peripheral blood neutrophils are incubated with 50 μM DHR. After exposure to fMLP (1 μM) or PAF (1 μM) for 3 minutes and fMLP (1 μM), the cells are placed on ice and samples analyzed with the evaluation of 10,000 events on a BD Canto flow cytometer. […] When PAF is used to prime the fMLP response, the result is a marked increase in H2O2 production expressed as MCF (˜250 MCF units).
This assay has been further optimized for the following reagents: DHR, 50 μM with the best loading time of 1 minute. Optional concentration of fMLP is 1 μM and PAF 1 μM. The assay should be analyzed in a flow cytometer as soon as possible but may be delayed up to 4 hours after completion without jeopardizing the results. Finally, plasma itself quenches the fluorescence. As a result the priming assay on this platform requires exposure of the cells to buffer or test sample for priming (PAF, plasma, etc), a low speed centrifugation to pellet cells, resuspension of cells in DHR containing buffer, then stimulation with fMLP. Determination of MCF is by analysis of 20,000 events. FIG. 6 summarizes results, expressed as mean ±SEM, with this assay in four separate experiments. Resting cells with buffer present very low levels of H2O2 with an increase when resting cells are stimulated with fMLP. Plasma from Day 0 and 7 stored platelet concentrates has little effect in the absence of fMLP.

neutrophil oxidase = assay: Priming of the neutrophil oxidase / fMLP stimulated respiratory burst by biologically active compounds; conditions: added directly to the assay
From the text: The priming activity of plasma specimens from various sources including patient samples and blood components has been described herein. The effects on priming by various dilutions may correlate with the concentration of biologically active compounds in the specimens. Many of these compounds are well characterized and their priming activities determined. […] Each has its own concentration dependent effects. […] Similar effects are seen with complement fragments (e.g., C5a), other biologically active lipids (e.g., leukotrienes), and other compounds (e.g., sCD40L). Antibodies to neutrophil antigens (e.g., HNA-3a) also can prime the oxidase enzyme system. All these agents may be detected in plasma from blood components implicated in TRALI or plasma from patients sustaining a TRALI reaction. All may be added directly to the assay and priming activity detected as described in other sections.

neutrophils = assay: Detection of priming by chemiluminescence (Diogenes probe); conditions: priming sample, then fMLP; FIG. 7 and FIG. 8
Description: A third assay makes use of energy from chemiluminescence to determine oxygen radical generation from activated neutrophils. In this reaction, neutrophils are incubated with the priming sample or buffer, then exposed to fMLP after addition of the chemiluminescent probe, Diogenes, and the energy released determined in a chemiluminescence reader. The optimal cell concentration is between 2.5×10^6 cells/ml and 5×10^6 cells/ml. The chemiluminescence is >90% SOD inhibitable and so detects superoxide anion. The optimal addition of diogene is 20 μl to provide specific determination of oxygen radicals released by the neutrophils respiratory burst. […] Buffer alone is included for control. […] As with fluorescence platform, plasma nonspecifically quenches the chemiluminescence. This can be circumvented with an extra wash step to remove plasma after incubating cells with the priming stimulus. The resultant assay is sensitive to the effect in stored blood products. […] The priming effect for PAF is presented for comparison. The results are expressed as mean ±SEM. This platform, using chemiluminescence, can be used to determine priming by biologic samples.

cytoplasts = assay: Cytoplast priming assay, superoxide anion measured as cytochrome c reduction; conditions: PAF 1 μM, fMLP 1 μM
Description: Cytoplasts are neutrophils which have been sedimented on a 20% Ficoll gradient at 77,000×g. Cytoplasts, are devoid of nucleus, granules and other subcellular organelles. Cytoplasts retain the ability for random and directed migration, phagocytosis of opsonized particles as well as activation of a respiratory burst and generation of reactive oxygen species. They can be frozen at −70° C. and thawed; the thawed cytoplasts can be used as targets for priming activity. The advantage is that cytoplasts would be readily available for assaying priming activity of biologic specimens (FIG. 1B, 113) in place of freshly isolated neutrophils from a healthy donor.

fMLP
mean channel fluorescence (H2O2 production) ([1]; fMLP 1 μM by itself, 50 μM DHR, FIG. 5): 45

TNF-alpha
priming of the fMLP stimulated respiratory burst (neutrophil oxidase): concentration dependent priming

platelet activating factor [PAF]
H2O2 production expressed as MCF ([1]; PAF 1 μM for 3 minutes, then fMLP 1 μM, 50 μM DHR, FIG. 5): ~250 MCF units
priming of the fMLP stimulated respiratory burst (H2O2, MCF) ([1]; priming sample, then fMLP, four separate experiments, FIG. 6): markedly enhanced
priming of the fMLP stimulated chemiluminescence (RLUs) (neutrophils): higher level of relative light units (RLUs) as well as a more prolonged time course at maximal production
enhancement of the fMLP stimulated respiratory burst by priming (cytoplasts): 1.6 to 2.0 fold

IL-8: cytokine/chemokine found in biologically active plasma samples
priming of the fMLP stimulated respiratory burst (neutrophil oxidase): concentration dependent priming
